Measured values published in patent publication US9149038B2, “4-amino-6-(heterocyclic)picolinates and 6-amino-2-(heterocyclic)pyrimidine-4-carboxylates and their use as herbicides” (Dow AgroSciences LLC, priority 2013, dated 2015).
Like-named read-outs stand apart in the source and are kept apart here.

Tested on: Wheat and Barley and weed species
Test: Post-Emergent Test III: postemergent herbicidal activity in wheat and barley, visual rating after 21 d and probit GR20/GR50/GR80/GR90 (Tables 9-13)
Type: in vivo
Settings: for pest or weed control at 17.5 g/ha / pest or weed control at 35 g/ha / pest or weed control at 70 g/ha: post-emergence, 504 h
How it was run: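 Greenhouse plants (~18/17 °C, 14 h photoperiod) at second–third true leaf stage sprayed at 187 L/ha with a high rate and ½× to 1/16× serial dilutions. Visual injury 0–100% versus solvent-blank controls scored at 21 d; GR20, GR50, GR80 and GR90 derived by probit analysis across rates.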

Q: For `COC(=O)c1nc(-c2cc3c(cc2F)OC(F)(F)O3)cc(N)c1Cl` [Compound 32], which “GR50 ALOMY” value (ALOMY black-grass (Alopecurus myosuroides), growth reduction of 50%, probit analysis) is on record?
A: The value was 5 g ai/ha.

Q: And the “GR80 ALOMY” value (ALOMY black-grass (Alopecurus myosuroides), growth reduction of 80%, probit analysis)?
A: Its value is 12 g ai/ha.

Q: What about the “GR90 ALOMY” value (ALOMY black-grass (Alopecurus myosuroides), growth reduction of 90%, probit analysis) of the same compound?
A: The value was 18 g ai/ha.

Q: What about the “Visual Growth Reduction (%) 21 Days After Application AVEFA” value (AVEFA wild oat (Avena fatua), 17.5 g ai/ha) of the same compound?
A: Its value is “E (45-59)”.

Q: And the “Visual Growth Reduction (%) 21 Days After Application AVEFA” value (AVEFA wild oat (Avena fatua), 35 g ai/ha)?
A: The value was “D (60-74)”.

Q: What about the “Visual Growth Reduction (%) 21 Days After Application AVEFA” value (AVEFA wild oat (Avena fatua), 70 g ai/ha) of the same compound?
A: The value was “D (60-74)”.

Q: What about the “GR50 AVEFA” value (AVEFA wild oat (Avena fatua), growth reduction of 50%, probit analysis) of the same compound?
A: Its value is 31 g ai/ha.

Q: And the “GR80 AVEFA” value (AVEFA wild oat (Avena fatua), growth reduction of 80%, probit analysis)?
A: Its value is >70 g ai/ha.

Q: And the “GR90 AVEFA” value (AVEFA wild oat (Avena fatua), growth reduction of 90%, probit analysis)?
A: The value was >70 g ai/ha.

Q: What about the “GR20 HORVS” value (HORVS barley, spring (crop), growth reduction of 20%, probit analysis) of the same compound?
A: The value was 3 g ai/ha.

Q: What about the pest or weed control at 17.5 g/ha (Hordeum vulgare, HORVS barley, spring (crop), 17.5 g ai/ha, read-out: Visual Growth Reduction (%) 21 Days After Application HORVS) of the same compound?
A: Its pest or weed control at 17.5 g/ha is 45 to 59%.

Q: And the pest or weed control at 35 g/ha (Hordeum vulgare, HORVS barley, spring (crop), 35 g ai/ha, read-out: Visual Growth Reduction (%) 21 Days After Application HORVS)?
A: Its pest or weed control at 35 g/ha is 60 to 74%.

Q: And the pest or weed control at 70 g/ha (Hordeum vulgare, HORVS barley, spring (crop), 70 g ai/ha, read-out: Visual Growth Reduction (%) 21 Days After Application HORVS)?
A: The pest or weed control at 70 g/ha was 60 to 74%.

Q: What about the “GR50 LOLSS” value (LOLSS ryegrass, growth reduction of 50%, probit analysis) of the same compound?
A: The value was 54 g ai/ha.

Q: And the “GR80 LOLSS” value (LOLSS ryegrass, growth reduction of 80%, probit analysis)?
A: The value was >70 g ai/ha.

Q: And the “GR90 LOLSS” value (LOLSS ryegrass, growth reduction of 90%, probit analysis)?
A: Its value is >70 g ai/ha.

Q: And the “Visual Growth Reduction (%) 21 Days After Application PHAMI” value (PHAMI lesser canary grass (Phalaris minor), 17.5 g ai/ha)?
A: Its value is “G (0-29)”.

Q: And the “Visual Growth Reduction (%) 21 Days After Application PHAMI” value (PHAMI lesser canary grass (Phalaris minor), 35 g ai/ha)?
A: The value was “F (30-44)”.

Q: What about the “Visual Growth Reduction (%) 21 Days After Application PHAMI” value (PHAMI lesser canary grass (Phalaris minor), 70 g ai/ha) of the same compound?
A: The value was “E (45-59)”.

Q: What about the “GR50 PHAMI” value (PHAMI lesser canary grass (Phalaris minor), growth reduction of 50%, probit analysis) of the same compound?
A: The value was 65 g ai/ha.

Q: What about the “GR80 PHAMI” value (PHAMI lesser canary grass (Phalaris minor), growth reduction of 80%, probit analysis) of the same compound?
A: Its value is >70 g ai/ha.

Q: And the “GR90 PHAMI” value (PHAMI lesser canary grass (Phalaris minor), growth reduction of 90%, probit analysis)?
A: Its value is >70 g ai/ha.

Q: And the “GR20 TRZAS” value (TRZAS wheat, spring (crop), growth reduction of 20%, probit analysis)?
A: The value was 1 g ai/ha.

Q: And the pest or weed control at 17.5 g/ha (Triticum aestivum, TRZAS wheat, spring (crop), 17.5 g ai/ha, read-out: Visual Growth Reduction (%) 21 Days After Application TRZAS)?
A: Its pest or weed control at 17.5 g/ha is 60 to 74%.

Q: What about the pest or weed control at 35 g/ha (Triticum aestivum, TRZAS wheat, spring (crop), 35 g ai/ha, read-out: Visual Growth Reduction (%) 21 Days After Application TRZAS) of the same compound?
A: The pest or weed control at 35 g/ha was 60 to 74%.

Q: And the pest or weed control at 70 g/ha (Triticum aestivum, TRZAS wheat, spring (crop), 70 g ai/ha, read-out: Visual Growth Reduction (%) 21 Days After Application TRZAS)?
A: Its pest or weed control at 70 g/ha is 75 to 84%.

Q: And the pest or weed control at 17.5 g/ha (ALOMY black-grass (Alopecurus myosuroides), 17.5 g ai/ha, read-out: Visual Growth Reduction (%) 21 Days After Application ALOMY)?
A: Its pest or weed control at 17.5 g/ha is 85 to 94%.

Q: What about the pest or weed control at 35 g/ha (ALOMY black-grass (Alopecurus myosuroides), 35 g ai/ha, read-out: Visual Growth Reduction (%) 21 Days After Application ALOMY) of the same compound?
A: The pest or weed control at 35 g/ha was 95 to 100%.

Q: And the pest or weed control at 70 g/ha (ALOMY black-grass (Alopecurus myosuroides), 70 g ai/ha, read-out: Visual Growth Reduction (%) 21 Days After Application ALOMY)?
A: Its pest or weed control at 70 g/ha is 95 to 100%.

Q: What about the pest or weed control at 17.5 g/ha (LOLSS ryegrass, 17.5 g ai/ha, read-out: Visual Growth Reduction (%) 21 Days After Application LOLSS) of the same compound?
A: The pest or weed control at 17.5 g/ha was 0 to 29%.

Q: And the pest or weed control at 35 g/ha (LOLSS ryegrass, 35 g ai/ha, read-out: Visual Growth Reduction (%) 21 Days After Application LOLSS)?
A: Its pest or weed control at 35 g/ha is 30 to 44%.

Q: What about the pest or weed control at 70 g/ha (LOLSS ryegrass, 70 g ai/ha, read-out: Visual Growth Reduction (%) 21 Days After Application LOLSS) of the same compound?
A: Its pest or weed control at 70 g/ha is 60 to 74%.
